The source of these data is patent US20110256064A1, “Novel Compounds for the Treatment of Diseases Associated with Amyloid or Amyloid-like Proteins” (AC Immune, S.A., priority 2010, published 2011).

This experiment deals with T1, A®1-42 peptide (Homo sapiens, UniProt P05067).
T1 construct: A®1-42 lyophilized powder (Bachem) was reconstituted in hexafluoroisopropanol (HFIP) to 1 mM; purchased Bachem
T1 sequence (P05067 672-713): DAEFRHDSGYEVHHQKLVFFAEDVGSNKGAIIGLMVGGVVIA
Description: Thioflavin T spectrofluorescence assay (ThT-assay), inhibition of A®1-42 aggregation. It counts as biochemical. As to conditions: 330 µM small molecule, 33 µM A®1-42 (molar ratio 10:1), 10 µM ThT, 12.8% DMSO in PBS, 24 hrs at 37° C.; mean +/- SD of two independent experiments. As for the experimental part:
The capacity of the compounds of the invention to inhibit the aggregation of A®1-42 peptide was determined by using the thioflavin T spectrofluorescence assay (ThT-assay) as described below.
A®1-42 lyophilized powder (Bachem) was reconstituted in hexafluoroisopropanol (HFIP) to 1 mM. The peptide solution was sonicated for 15 min at room temperature, agitated overnight, and aliquots were placed into non-siliconized microcentrifuge tubes. The HFIP was then evaporated under a stream of argon. The resulting peptide film was dried under vacuum for 10 min, tightly sealed and stored at −80° C. until used.
An A®1-42 peptide film was dissolved in DMSO to reach 400 ? M. An assay solution in PBS was prepared in non-siliconized incubation tubes to reach the following concentrations: 330 ? M small molecule, 33 ? M A®1-42, 10 ? M thioflavin T (ThT), and 12.8% DMSO. Therefore, the final molar ratio of small molecule to A®1-42 was 10:1. A positive control without a small molecule was prepared to measure maximum RFU. A negative control without A®1-42 was prepared for each small molecule. The 3-amino-pyrazole trimer (Rzepecki et. al. Synthesis 2003, 1815) was tested as a reference compound in all assays to ascertain reproducibility between independent experiments. The solutions were then incubated for 24 hrs at 37° C., and the spectrofluorescence (relative fluorescence units; RFU) read in six replicates in black 384-well assay plates (Perkin-Elmer) on a Perkin-Elmer FluoroCount spectrofluorometer. Inhibition of aggregation is expressed as mean % inhibition±1 standard deviation (SD) according to the following equation: […]
Take `FC(F)(F)c1ccc(Nc2cncc(NCC3CCNCC3)c2)cn1` [Example 1]: the inhibition at 330 µM came out at 38 ± 0.6%.

For `c1ncc(N2CCOCC2)cc1N1CCOCC1` [Example 2], the inhibition at 330 µM was 15.7 ± 6.1%.

With `FC(F)(F)c1ccc(Nc2cncc(N3CCOCC3)c2)cn1` [Example 3], the inhibition at 330 µM was 36.9 ± 17.2%.

`c1cc2c(C3CCNCC3)c[nH]c2cc1Nc1cncc(N2CCOCC2)c1` [Example 4]: the inhibition at 330 µM was 53.3 ± 7.6%. To `c1ncc(N2CCNCC2)cc1N1CCNCC1` [Example 5] belongs 60.1 ± 7.8%; to `Fc1cc(F)cc(Nc2cncc(N3CCNCC3)c2)c1` [Example 6], 62.5 ± 7.4%. With `FC(F)(F)c1ccc(Nc2cncc(N3CCNCC3)c2)cn1` [Example 7], the inhibition at 330 µM is 28.3 ± 3.2%. To `c1ncc(NCC2CCNCC2)cc1NCC1CCNCC1` [Example 8] belongs 69.5 ± 1.4%. To `Fc1cc(F)cc(Nc2cncc(NCC3CCNCC3)c2)c1` [Example 9] belongs 55 ± 7.4%; to `FC(F)(F)c1ccc(Nc2cncc(NCC3CCNCC3)c2)cc1` [Example 10], 73.9 ± 4.7%. With `c1cc2ccc(Nc3cncc(NCC4CCNCC4)c3)nc2[nH]1` [Example 11], the inhibition at 330 µM worked out at 62.7 ± 2.1%. `c1ncc(Nc2ccc3c(C4CCNCC4)c[nH]c3c2)cc1NCC1CCNCC1` [Example 12]: the inhibition at 330 µM is 95.4 ± 0.8%. To `c1ncc(Nc2ccc3c4c([nH]c3n2)CCCC4)cc1NCC1CCNCC1` [Example 13] belongs 100 ± 4.4%. To `FC1(CNc2cncc(Nc3ccc(C(F)(F)F)nc3)c2)CCNCC1` [Example 14] belongs 86.2 ± 4.7%; to `FC1(CNc2cncc(Nc3ccc4c5c([nH]c4n3)CCCC5)c2)CCNCC1` [Example 15], 95.7 ± 0.4%; to `FC1(CNc2cncc(Nc3ccc(C(F)(F)F)cc3)c2)CCNCC1` [Example 16], 62.9 ± 8.2%. To `Cn1c2c(c3ccc(Nc4cncc(NCC5(F)CCNCC5)c4)nc31)CCCC2` [Example 17] belongs 96.5 ± 1.4%; to `CN1CCC(CNc2cncc(Nc3ccc(C(F)(F)F)nc3)c2)CC1` [Example 18], 29.5 ± 0.1%; to `FC(F)(F)c1ccc(Nc2cncc(NCC3CCOCC3)c2)cn1` [Example 19], 40.2 ± 6.3%.

On to `FC(F)(F)c1ccc(Nc2cncc(NCC3CCOCC3)c2)cc1` [Example 20], for which the inhibition at 330 µM stood at 51.7 ± 0.3%.

One may read the inhibition as the drop in the measured response relative to a control, in per cent.
